Active and inactive are the calls of the source.
Legend:
[1] = target: T1, Leucine aminopeptidase (Plasmodium falciparum 3D7, UniProt Q8IL11); experiment: P. falciparum M17LAP inhibitors, primary screen, biochemical, fluorogenic H-Leu-NHMec substrate, 1536-well (AID 1619); assay type: functional
T1 sequence (Q8IL11 whole entry): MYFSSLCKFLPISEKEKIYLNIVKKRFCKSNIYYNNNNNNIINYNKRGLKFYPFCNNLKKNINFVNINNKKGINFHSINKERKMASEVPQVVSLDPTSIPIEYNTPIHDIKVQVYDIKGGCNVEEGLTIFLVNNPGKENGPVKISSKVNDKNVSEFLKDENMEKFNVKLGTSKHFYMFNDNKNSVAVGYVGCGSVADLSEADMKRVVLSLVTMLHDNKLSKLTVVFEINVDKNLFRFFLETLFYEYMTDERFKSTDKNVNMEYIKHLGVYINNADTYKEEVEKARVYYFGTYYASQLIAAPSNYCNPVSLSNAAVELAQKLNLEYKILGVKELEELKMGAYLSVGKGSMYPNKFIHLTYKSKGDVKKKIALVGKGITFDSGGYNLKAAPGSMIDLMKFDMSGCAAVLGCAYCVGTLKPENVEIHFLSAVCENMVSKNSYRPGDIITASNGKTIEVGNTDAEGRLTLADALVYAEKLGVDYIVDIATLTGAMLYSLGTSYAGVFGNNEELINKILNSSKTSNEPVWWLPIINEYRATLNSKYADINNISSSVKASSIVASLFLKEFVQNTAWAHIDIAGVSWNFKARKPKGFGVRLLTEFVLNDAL

[2] = target: G-protein coupled receptor 35 (Homo sapiens, UniProt Q9HC97); experiment: inhibition of zaprinast-stimulated GPR35 beta-arrestin translocation – imaging, U2OS, beta-arrestin-GFP, zaprinast agonist, primary screen (AID 2058); assay type: functional;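 also: antagonist potency meaning inhibition of agonist-induced arrestin redistribution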
G-protein coupled receptor 35, sequence (Q9HC97 whole entry): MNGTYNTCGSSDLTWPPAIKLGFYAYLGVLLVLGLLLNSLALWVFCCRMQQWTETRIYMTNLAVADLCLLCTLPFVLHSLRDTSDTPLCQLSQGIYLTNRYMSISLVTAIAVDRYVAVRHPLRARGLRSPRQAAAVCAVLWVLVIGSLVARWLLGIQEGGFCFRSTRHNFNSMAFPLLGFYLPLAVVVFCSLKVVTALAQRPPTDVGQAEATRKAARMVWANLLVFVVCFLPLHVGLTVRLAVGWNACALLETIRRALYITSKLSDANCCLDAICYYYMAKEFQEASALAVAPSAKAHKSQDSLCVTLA

[3] = target: Beta-lactamase (Pseudomonas aeruginosa, UniProt Q79MP6);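 also: biochemical dose-response test of metallo-beta-lactamase enzyme inhibition, read out by epi-absorbance; purified recombinant IMP-1 metallo-beta-lactamase with nitrocefin as substrate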
Beta-lactamase (Pseudomonas aeruginosa, UniProt Q79MP6), sequence (Q79MP6 whole entry): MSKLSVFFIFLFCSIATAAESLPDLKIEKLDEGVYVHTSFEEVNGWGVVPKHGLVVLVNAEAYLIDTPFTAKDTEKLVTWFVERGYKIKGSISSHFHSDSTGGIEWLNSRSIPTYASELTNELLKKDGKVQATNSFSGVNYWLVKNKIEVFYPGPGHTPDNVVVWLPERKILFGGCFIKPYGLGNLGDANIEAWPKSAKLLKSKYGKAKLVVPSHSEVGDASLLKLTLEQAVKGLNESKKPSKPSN

[4] = target: T2, Calpain-2 catalytic subunit (Sus scrofa, UniProt P43367); experiment: m-calpain protease blockers, concentration series – biochemical, fluorogenic peptide substrate, dose response (AID 1420); assay type: functional
T2 sequence (P43367 whole entry): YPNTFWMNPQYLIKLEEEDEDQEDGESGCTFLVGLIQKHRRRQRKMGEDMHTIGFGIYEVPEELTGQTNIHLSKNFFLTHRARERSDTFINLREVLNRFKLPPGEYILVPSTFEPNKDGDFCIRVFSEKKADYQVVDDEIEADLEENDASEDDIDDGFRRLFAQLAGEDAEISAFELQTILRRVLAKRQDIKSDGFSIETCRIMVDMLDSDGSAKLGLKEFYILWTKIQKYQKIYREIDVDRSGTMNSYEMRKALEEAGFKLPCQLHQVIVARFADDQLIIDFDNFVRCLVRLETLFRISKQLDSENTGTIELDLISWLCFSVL

[5] = target: Beta-lactamase (Salmonella choleraesuis (strain SC-B67), UniProt Q5J463)
Beta-lactamase (Salmonella choleraesuis (strain SC-B67), UniProt Q5J463), sequence (Q5J463 whole entry): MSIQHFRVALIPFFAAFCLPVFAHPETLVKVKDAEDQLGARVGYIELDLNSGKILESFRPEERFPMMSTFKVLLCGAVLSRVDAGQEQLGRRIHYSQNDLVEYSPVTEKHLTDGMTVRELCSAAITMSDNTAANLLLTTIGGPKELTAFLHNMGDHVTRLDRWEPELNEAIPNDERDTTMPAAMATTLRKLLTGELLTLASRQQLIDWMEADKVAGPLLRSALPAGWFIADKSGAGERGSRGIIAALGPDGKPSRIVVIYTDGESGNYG

[6] = mitochondrial function rescue without frataxin homolog – Friedreich's ataxia, plus single-dose screen, dose response (AID 1465); assay type: functional;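 also: yeast depleted of Yfh1p frataxin homolog grown on glycerol needing respiration; WST-1 tetrazolium dye reduction as measure of cellular dehydrogenase metabolic activity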
[7] = target: T3, Tyrosine-protein phosphatase non-receptor type 7 (Homo sapiens, UniProt P35236); assay type: functional
T3 sequence (P35236 whole entry): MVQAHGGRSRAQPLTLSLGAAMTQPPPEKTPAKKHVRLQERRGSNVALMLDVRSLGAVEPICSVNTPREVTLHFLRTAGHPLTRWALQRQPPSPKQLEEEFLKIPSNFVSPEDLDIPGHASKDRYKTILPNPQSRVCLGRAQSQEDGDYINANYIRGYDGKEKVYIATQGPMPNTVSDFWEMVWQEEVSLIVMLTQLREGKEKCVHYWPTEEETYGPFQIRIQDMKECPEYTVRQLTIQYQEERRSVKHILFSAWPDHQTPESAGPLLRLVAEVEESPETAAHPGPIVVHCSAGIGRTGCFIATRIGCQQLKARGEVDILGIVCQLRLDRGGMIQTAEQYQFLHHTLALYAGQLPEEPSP

[8] = target: Glyceraldehyde-3-phosphate dehydrogenase (Homo sapiens, UniProt P04406)
Glyceraldehyde-3-phosphate dehydrogenase, sequence (P04406 whole entry): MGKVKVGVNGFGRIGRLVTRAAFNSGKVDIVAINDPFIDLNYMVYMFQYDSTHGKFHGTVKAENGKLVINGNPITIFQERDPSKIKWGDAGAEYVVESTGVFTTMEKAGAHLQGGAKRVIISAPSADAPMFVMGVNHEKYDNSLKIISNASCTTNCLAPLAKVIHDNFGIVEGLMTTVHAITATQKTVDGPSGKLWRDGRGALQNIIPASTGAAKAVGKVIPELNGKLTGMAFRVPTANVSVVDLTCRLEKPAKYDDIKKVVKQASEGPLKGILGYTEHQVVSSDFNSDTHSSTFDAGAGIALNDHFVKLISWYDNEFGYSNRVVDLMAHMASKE

[9] = target: T4, Dual specificity protein phosphatase 6 (Rattus norvegicus, UniProt Q64346)
T4 sequence (Q64346 whole entry): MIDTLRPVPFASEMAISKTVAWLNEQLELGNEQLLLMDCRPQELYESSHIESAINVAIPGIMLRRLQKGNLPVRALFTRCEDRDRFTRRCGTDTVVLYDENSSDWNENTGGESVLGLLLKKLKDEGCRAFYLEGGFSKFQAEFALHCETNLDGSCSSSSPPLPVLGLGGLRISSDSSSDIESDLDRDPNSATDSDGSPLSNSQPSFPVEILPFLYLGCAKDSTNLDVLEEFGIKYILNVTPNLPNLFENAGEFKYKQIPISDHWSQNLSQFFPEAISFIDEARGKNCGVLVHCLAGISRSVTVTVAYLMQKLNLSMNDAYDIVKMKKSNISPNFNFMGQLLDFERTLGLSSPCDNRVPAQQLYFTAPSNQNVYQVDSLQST

[10] = target: T4, Dual specificity protein phosphatase 6; assay type: functional
[11] = target: Protein Rev (Human immunodeficiency virus type 1 group M subtype B (isolate HXB2)(HIV-1), UniProt P04618); experiment: blockers of HIV Rev/RRE RNA complex – biochemical, fluorescence polarization, HIV-1, dose response (AID 434976); parameters: species or system Human immunodeficiency virus 1
Protein Rev (Human immunodeficiency virus type 1 group M subtype B (isolate HXB2)(HIV-1), UniProt P04618), sequence (P04618 whole entry): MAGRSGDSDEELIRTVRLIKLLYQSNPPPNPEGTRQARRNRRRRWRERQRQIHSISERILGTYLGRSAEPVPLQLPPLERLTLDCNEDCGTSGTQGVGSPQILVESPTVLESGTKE

[12] = target: Female germline-specific tumor suppressor gld-1 (Caenorhabditis elegans, UniProt Q17339); experiment: blockers of GLD-1/TGE RNA complex formation – biochemical, fluorescence polarization, C. elegans, dose response (AID 2802);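 also: fluorescence polarization of labeled TGE RNA bound by purified gld-1 protein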
Female germline-specific tumor suppressor gld-1, sequence (Q17339 whole entry): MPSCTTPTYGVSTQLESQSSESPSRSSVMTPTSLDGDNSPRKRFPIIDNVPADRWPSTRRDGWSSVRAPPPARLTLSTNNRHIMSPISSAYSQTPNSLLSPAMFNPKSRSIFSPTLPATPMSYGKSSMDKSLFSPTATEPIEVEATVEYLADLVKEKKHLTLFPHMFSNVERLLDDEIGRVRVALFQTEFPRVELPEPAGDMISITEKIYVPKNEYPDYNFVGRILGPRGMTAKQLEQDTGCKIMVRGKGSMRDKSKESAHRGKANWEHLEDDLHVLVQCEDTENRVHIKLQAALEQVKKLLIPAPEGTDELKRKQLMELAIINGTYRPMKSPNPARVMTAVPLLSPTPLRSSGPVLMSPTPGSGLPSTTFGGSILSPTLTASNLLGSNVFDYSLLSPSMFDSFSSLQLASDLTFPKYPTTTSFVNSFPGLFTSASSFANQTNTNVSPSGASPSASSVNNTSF

[13] = target: T5, Polyadenylate-binding protein 1 (Homo sapiens, UniProt P11940); experiment: MLLE binding blockers, Cy5 peptide tracer – biochemical, fluorescence polarization, Cy5-PAM2 peptide, secondary, miRNA deadenylation inhibitor project, dose response (AID 602260); assay type: functional; conditions: read-out: IC50_Mean
T5 sequence (P11940 whole entry, the tested form may be a part): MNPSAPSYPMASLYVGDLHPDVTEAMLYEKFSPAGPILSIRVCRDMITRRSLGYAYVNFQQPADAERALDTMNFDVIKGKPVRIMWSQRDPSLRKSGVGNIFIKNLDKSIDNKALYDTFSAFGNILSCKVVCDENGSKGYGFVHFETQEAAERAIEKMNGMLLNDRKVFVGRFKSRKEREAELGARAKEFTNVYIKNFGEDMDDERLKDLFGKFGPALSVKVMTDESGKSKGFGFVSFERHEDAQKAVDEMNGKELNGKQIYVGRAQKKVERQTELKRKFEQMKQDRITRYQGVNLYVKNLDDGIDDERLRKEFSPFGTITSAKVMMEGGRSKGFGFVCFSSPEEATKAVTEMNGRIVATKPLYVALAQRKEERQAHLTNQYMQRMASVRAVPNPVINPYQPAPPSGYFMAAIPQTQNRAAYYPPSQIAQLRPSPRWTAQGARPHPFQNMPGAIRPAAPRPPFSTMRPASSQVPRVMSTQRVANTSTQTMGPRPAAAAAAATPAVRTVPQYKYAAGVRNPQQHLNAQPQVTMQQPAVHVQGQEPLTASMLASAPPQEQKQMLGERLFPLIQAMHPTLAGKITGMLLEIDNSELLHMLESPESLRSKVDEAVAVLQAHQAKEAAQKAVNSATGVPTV

[14] = target: T5, Polyadenylate-binding protein 1; experiment: MLLE domain peptide-binding blockers, IC50 – biochemical, fluorescence polarization, FITC-PAM2 peptide, dose response (AID 602259); assay type: functional; conditions: read-out: IC50_Mean
[15] = target: Protein Rev (Human immunodeficiency virus type 1 group M subtype B (isolate WMJ22)(HIV-1), UniProt P05866); experiment: inhibitors of Rev protein–RRE RNA complex – biochemical, protein-RNA interaction, dose response (AID 842); parameters: species or system Human immunodeficiency virus 1
Protein Rev (Human immunodeficiency virus type 1 group M subtype B (isolate WMJ22)(HIV-1), UniProt P05866), sequence (P05866 whole entry): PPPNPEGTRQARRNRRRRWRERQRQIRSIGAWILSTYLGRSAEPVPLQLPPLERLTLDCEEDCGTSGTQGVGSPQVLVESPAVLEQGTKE

[16] = tested on: Staphylococcus aureus; experiment: Inhibitors of Bacterial Quorum Sensing Structure Activity Relationship (SAR) Analysis: Dose Response Assay. [Related pubchem assays: 700, 527 ]; assay type: functional, organism-based
[17] = target: Melanin-concentrating hormone receptor 1 (Homo sapiens, UniProt Q99705); experiment: Late-stage fluorescence-based counterscreen for antagonists of the G-protein coupled receptor 7 (GPR7): cell-based dose response assay to identify antagonists of the melanin-concentrating hormone receptor 1 (MCHR1). [Related pubchem assays (depositor defined):AID1861, AID1880, AID1952, AID2148, AID2251, AID2257, AID485339]; assay type: functional;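 also: stimulated with 30 nM MCH peptide agonist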
Melanin-concentrating hormone receptor 1, sequence (Q99705 whole entry): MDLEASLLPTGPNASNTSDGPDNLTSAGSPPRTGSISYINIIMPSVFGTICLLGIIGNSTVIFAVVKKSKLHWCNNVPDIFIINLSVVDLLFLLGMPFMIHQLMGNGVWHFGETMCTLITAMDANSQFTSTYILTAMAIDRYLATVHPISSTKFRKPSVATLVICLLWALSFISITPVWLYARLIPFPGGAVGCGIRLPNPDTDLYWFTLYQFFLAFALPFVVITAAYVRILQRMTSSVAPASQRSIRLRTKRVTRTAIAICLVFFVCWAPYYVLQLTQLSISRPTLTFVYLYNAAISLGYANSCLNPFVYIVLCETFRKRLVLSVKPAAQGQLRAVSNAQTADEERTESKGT

[18] = target: Tumor necrosis factor (Homo sapiens, UniProt P01375); experiment: analog potency on TNFa NF-kB signaling – cell-based, revised, SAR follow-up (AID 2337); assay type: functional
Tumor necrosis factor, sequence (P01375 whole entry, the tested form may be a part): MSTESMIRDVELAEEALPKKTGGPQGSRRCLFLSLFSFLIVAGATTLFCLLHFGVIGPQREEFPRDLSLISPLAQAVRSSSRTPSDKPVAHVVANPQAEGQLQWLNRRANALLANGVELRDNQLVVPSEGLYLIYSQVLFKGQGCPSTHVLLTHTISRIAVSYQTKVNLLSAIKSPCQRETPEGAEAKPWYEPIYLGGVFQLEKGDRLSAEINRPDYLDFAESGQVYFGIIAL

[19] = target: Nucleotide-binding oligomerization domain-containing protein 1 (Homo sapiens, UniProt Q9Y239); experiment: blockers of NOD1 pathway activity – revised, SAR follow-up (AID 2333); assay type: functional
[20] = target: Nucleotide-binding oligomerization domain-containing protein 2 (Homo sapiens, UniProt Q9HC29); experiment: PubChem AID 2334; assay type: functional
Nucleotide-binding oligomerization domain-containing protein 2, sequence (Q9HC29 whole entry, the tested form may be a part): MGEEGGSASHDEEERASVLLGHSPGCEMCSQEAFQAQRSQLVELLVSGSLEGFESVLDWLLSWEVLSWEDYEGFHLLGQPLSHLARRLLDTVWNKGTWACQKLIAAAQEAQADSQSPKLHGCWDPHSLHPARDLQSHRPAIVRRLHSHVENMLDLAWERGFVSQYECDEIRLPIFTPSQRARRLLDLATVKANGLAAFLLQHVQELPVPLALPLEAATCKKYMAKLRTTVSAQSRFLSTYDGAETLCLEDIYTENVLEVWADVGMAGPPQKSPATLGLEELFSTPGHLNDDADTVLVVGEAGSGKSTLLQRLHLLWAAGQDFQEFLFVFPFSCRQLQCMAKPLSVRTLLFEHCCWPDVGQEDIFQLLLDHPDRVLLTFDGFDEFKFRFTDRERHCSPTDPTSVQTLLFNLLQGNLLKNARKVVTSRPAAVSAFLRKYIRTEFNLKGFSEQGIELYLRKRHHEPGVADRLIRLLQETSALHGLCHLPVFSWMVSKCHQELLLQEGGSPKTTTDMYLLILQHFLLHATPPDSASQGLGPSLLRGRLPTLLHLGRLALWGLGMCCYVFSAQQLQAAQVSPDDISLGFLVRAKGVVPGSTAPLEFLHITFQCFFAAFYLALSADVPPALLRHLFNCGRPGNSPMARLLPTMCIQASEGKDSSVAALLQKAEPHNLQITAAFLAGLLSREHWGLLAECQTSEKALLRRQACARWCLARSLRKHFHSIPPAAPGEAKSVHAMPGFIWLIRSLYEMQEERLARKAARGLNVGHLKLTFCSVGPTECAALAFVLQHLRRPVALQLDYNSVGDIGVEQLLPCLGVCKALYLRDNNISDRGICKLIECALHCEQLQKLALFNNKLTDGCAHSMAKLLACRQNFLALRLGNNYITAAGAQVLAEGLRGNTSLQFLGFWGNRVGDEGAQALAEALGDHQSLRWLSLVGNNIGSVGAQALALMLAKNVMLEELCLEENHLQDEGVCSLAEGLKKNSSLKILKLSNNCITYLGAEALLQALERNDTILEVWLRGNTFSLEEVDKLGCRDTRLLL

[21] = tested on: HEK293; experiment: cells; conditions: Homo sapiens;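 also: cells exposed to compound for 14 hours overnight before viability readout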
[22] = Luminescence Cell-Based Dose Retest to Confirm Inhibitors of Cancer Stem Cells. [Related pubchem assays (depositor defined):AID2717, AID2721]; assay type: functional; conditions: Homo sapiens
[23] = target: Neurotensin receptor type 1 (Homo sapiens, UniProt P30989); assay type: functional;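 also: Image-based confirmatory dose-response assay measuring agonist activity at NTR1; NTR1-expressing U2OS osteosarcoma cells imaged for beta-arrestin GFP spot formation; agonist potency where compounds increase beta-arrestin recruitment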
Neurotensin receptor type 1, sequence (P30989 whole entry): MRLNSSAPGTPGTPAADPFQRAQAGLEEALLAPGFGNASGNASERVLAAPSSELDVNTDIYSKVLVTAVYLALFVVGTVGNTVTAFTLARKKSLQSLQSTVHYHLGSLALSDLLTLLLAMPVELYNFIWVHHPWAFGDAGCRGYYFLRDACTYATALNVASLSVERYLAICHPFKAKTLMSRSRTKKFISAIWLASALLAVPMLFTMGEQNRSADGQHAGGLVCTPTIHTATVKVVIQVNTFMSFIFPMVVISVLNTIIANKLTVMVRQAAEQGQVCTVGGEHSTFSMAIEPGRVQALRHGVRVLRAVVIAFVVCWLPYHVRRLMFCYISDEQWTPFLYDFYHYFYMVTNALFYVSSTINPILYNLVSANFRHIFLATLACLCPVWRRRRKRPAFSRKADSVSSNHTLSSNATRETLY

[24] = tested on: INS1; experiment: INS-1E survival protection against cytokine death – cell-based, luminescence, retest, dose response (AID 449756); assay type: functional; conditions: Rattus norvegicus;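 also: cell death triggered by IL-1 beta plus TNF-alpha plus IFN-gamma mixture; protective hits raise ATP signal compared with cytokine alone wells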

Structure (SMILES): CN1CCN(C2=CC3=CC(=C(C#N)C#N)CCC3CC2)CC1 (centres undefined)
- IC50 [1]: 100 µM (active)
- IC50 [2]: 2.76 µM (active)
- IC50 [3]: 3.5 µM (active)
- IC50 [4]: 13.9 µM (not active)
- IC50 [5]: 2.28 µM (active)
- EC50 [6]: > 100 µM (active)

Structure (SMILES): Cn1c(SCC(=O)O)nc2sc3c(c2c1=O)CCC3
- IC50 [7]: > 100 µM (not active)
- IC50 [8]: > 100 µM (not active)
- IC50 [9]: > 100 µM (inactive)
- IC50 [10]: > 100 µM (inactive)

Structure (SMILES): COc1ccc2nc(N3CCCCC3)c(C#N)cc2c1
- IC50 [11]: 14.8 µM (not active)
- IC50 [12]: 6.28 µM (active)
- IC50 [13]: > 66 µM (inactive)
- IC50 [14]: 18.5 µM (active)

Structure (SMILES): COc1cccc(Nc2nc(N)nc(-c3oc4ccccc4c3C)n2)c1
- IC50 [15]: > 79.4 µM (not active)

Structure (SMILES): CC(=O)c1cc2c(cc1NC(=O)CN1CCN(C(c3ccccc3)c3ccccc3)CC1)OCO2
- IC50 [16]: 1.51 µM (active)

Structure (SMILES): COc1ccc(Oc2c(Cl)cnn(-c3ccc(C(C)C)c(C)c3)c2=O)cc1
- IC50 [17]: 2 µM (active)

Structure (SMILES): N#Cc1ccc(C(=O)Nc2nc3ccccc3n2Cc2ccc(Cl)cc2)cc1
- IC50 [18]: > 20 µM (inactive)
- IC50 [19]: > 20 µM (inactive)
- IC50 [20]: > 20 µM (inactive)
- IC50 [21]: > 20 µM (inactive)

Structure (SMILES): COc1cc(OC)c2cc(C(=O)N/N=C/c3cccc(OC)c3O)[nH]c2c1
- AC50 [22]: 3.97 µM (active)
- EC50 [23]: 19.3 µM (active)
- AC50 [24]: 3.8 µM (active)
